Measurements published in patent US20090181075A1, “DROSPIRENONE CONTAINING TRANSDERMAL DRUG DELIVERY DEVICES AND METHODS OF DELIVERY THEREOF” (priority 2005, published 2009).

Experiment: Drospirenone solubility in liquid excipients
Type: physicochemical
Details: weight-weight basis
Description: The solubility of drospirenone in liquid excipients was obtained using the following test method. Drospirenone was incrementally added to excipient until it stopped dissolving. The saturated solution was then filtered through a 0.45 μm polytetrafluoroethylene filter to remove excess drug particles. The concentration of drospirenone was then analyzed for drug using conventional high performance liquid chromatography methods. The values are reported as the percent solubility on a weight-weight basis.

A solubility of drospirenone (in benzyl alcohol) of 44.4%, a solubility of drospirenone (in benzyl lactate) of 22.6% and a solubility of drospirenone (in glyceryl monooleate) of 2.0% were found for `C[C@]12CCC(=O)C=C1[C@@H]1C[C@@H]1[C@H]1[C@@H]3[C@@H]4C[C@@H]4[C@@]4(CCC(=O)O4)[C@@]3(C)CC[C@@H]12` [drospirenone, 6β,7β,15β,16β-dimethylene-3-oxo-17α-pregn-4-ene-21,17-carbolactone] in this work. For the same molecule, the solubility of drospirenone (in lauryl alcohol) was 1.0%, the solubility of drospirenone (in lauryl lactate) was 1.4% and the solubility of drospirenone (in methyl lactate) was 11.6%. It also gave a solubility of drospirenone (in methyl laurate) of 0.6%.
